Data from paper PMC4411097, “Pachymic Acid Inhibits Growth and Induces Apoptosis of Pancreatic Cancer In Vitro and In Vivo by Targeting ER Stress” (PLoS ONE, 2015).

Test system: MIA PaCa-2 cells
Assay: DNA microarray analysis (Affymetrix Human PrimeView)
Assay type: cell-based
[1] = gene SRP19, probeset 11758864_at
[2] = gene STC1, probeset 11750279_a_at
[3] = gene TMEM201, probeset 11726819_at
[4] = gene TNFAIP2, probeset 11717823_s_at
[5] = gene TNFRSF12A, probeset 11745020_a_at
[6] = gene TNFSF18, probeset 11737853_at
[7] = gene TRAF1, probeset 11721588_at
[8] = gene TXNRD1, probeset 11750416_a_at
[9] = gene symbol ---, probeset AFFX-M27830_M_at

## C=C(CC[C@@H](C(=O)O)[C@H]1[C@H](O)C[C@@]2(C)C3=C(CC[C@]12C)[C@@]1(C)CC[C@H](OC(C)=O)C(C)(C)[C@@H]1CC3)C(C)C [PA, Pachymic acid]
Gene SPRY4, probeset 11736669_s_at, MiaPaca-2, PA-treated
  Mean (MiaPaca-2 * PA): 6.19
[1]
  Fold-Change (MiaPaca-2 * PA vs. MiaPaca-2 * control): 1.58
  Mean (MiaPaca-2 * PA): 8.71
[2]
  Fold-Change (MiaPaca-2 * PA vs. MiaPaca-2 * control): 1.56
  Mean (MiaPaca-2 * PA): 5.97
Gene STX1A, probeset 11720340_a_at
  Mean (MiaPaca-2 * PA): 6.73
[3]
  Fold-Change (MiaPaca-2 * PA vs. MiaPaca-2 * control): 1.56
  Mean (MiaPaca-2 * PA): 6.77
Gene TNF, probeset 11721577_at
  Fold-Change (MiaPaca-2 * PA vs. MiaPaca-2 * control): 1.57
  Mean (MiaPaca-2 * PA): 5.89
[4]
  Fold-Change (MiaPaca-2 * PA vs. MiaPaca-2 * control): 1.60
  Mean (MiaPaca-2 * PA): 8.52
[5]
  Fold-Change (MiaPaca-2 * PA vs. MiaPaca-2 * control): 1.59
  Mean (MiaPaca-2 * PA): 9.93
[6]
  Fold-Change (MiaPaca-2 * PA vs. MiaPaca-2 * control): 1.61
  Mean (MiaPaca-2 * PA): 7.58
Gene TRA2B, probeset 11734663_at, MiaPaca-2
  Fold-Change (MiaPaca-2 * PA vs. MiaPaca-2 * control): 1.51
Gene TRA2B, probeset 11734663_at, MiaPaca-2, PA-treated
  Mean (MiaPaca-2 * PA): 5.21
[7]
  Fold-Change (MiaPaca-2 * PA vs. MiaPaca-2 * control): 1.57
  Mean (MiaPaca-2 * PA): 5.45
[8]
  Fold-Change (MiaPaca-2 * PA vs. MiaPaca-2 * control): 1.56
  Mean (MiaPaca-2 * PA): 9.74
[9]
  Fold-Change (MiaPaca-2 * PA vs. MiaPaca-2 * control): 1.54
  Mean (MiaPaca-2 * PA): 11.57
Probeset 11715388_s_at
  Fold-Change (MiaPaca-2 * PA vs. MiaPaca-2 * control), CDKN1A: 1.87
  Mean (MiaPaca-2 * PA), CDKN1A: 8.59
Probeset 11715441_a_at
  Fold-Change (MiaPaca-2 * PA vs. MiaPaca-2 * control), CTGF: 2.27
  Mean (MiaPaca-2 * PA), CTGF: 6.57
Probeset 11715442_s_at
  Fold-Change (MiaPaca-2 * PA vs. MiaPaca-2 * control), CTGF: 2.36
  Mean (MiaPaca-2 * PA), CTGF: 7.76
Probeset 11715493_a_at
  Fold-Change (MiaPaca-2 * PA vs. MiaPaca-2 * control), CYR61: 2.12
  Mean (MiaPaca-2 * PA), CYR61: 10.88
Probeset 11715636_a_at
  Fold-Change (MiaPaca-2 * PA vs. MiaPaca-2 * control), SERPINE1: 1.72
  Mean (MiaPaca-2 * PA), SERPINE1: 9.63
Probeset 11715766_a_at
  Fold-Change (MiaPaca-2 * PA vs. MiaPaca-2 * control), DUSP1: 1.72
  Mean (MiaPaca-2 * PA), DUSP1: 8.75
Probeset 11716939_a_at
  Fold-Change (MiaPaca-2 * PA vs. MiaPaca-2 * control), HMOX1: 1.83
  Mean (MiaPaca-2 * PA), HMOX1: 7.80
Probeset 11717039_a_at
  Fold-Change (MiaPaca-2 * PA vs. MiaPaca-2 * control), GADD45A: 1.88
  Mean (MiaPaca-2 * PA), GADD45A: 11.35
Probeset 11717860_a_at
  Fold-Change (MiaPaca-2 * PA vs. MiaPaca-2 * control), EGR1: 1.78
  Mean (MiaPaca-2 * PA), EGR1: 10.72
Probeset 11718618_a_at
  Fold-Change (MiaPaca-2 * PA vs. MiaPaca-2 * control), DNAJA4: 2.01
  Mean (MiaPaca-2 * PA), DNAJA4: 6.51
Probeset 11718841_s_at
  Fold-Change (MiaPaca-2 * PA vs. MiaPaca-2 * control), IL8: 2.40
  Mean (MiaPaca-2 * PA), IL8: 12.69
Probeset 11718939_s_at
  Fold-Change (MiaPaca-2 * PA vs. MiaPaca-2 * control), TNFAIP3: 2.11
  Mean (MiaPaca-2 * PA), TNFAIP3: 7.50
Probeset 11718940_a_at
  Fold-Change (MiaPaca-2 * PA vs. MiaPaca-2 * control), TNFAIP3: 2.00
  Mean (MiaPaca-2 * PA), TNFAIP3: 6.10
Probeset 11719344_a_at
  Fold-Change (MiaPaca-2 * PA vs. MiaPaca-2 * control), ATF3: 3.30
  Mean (MiaPaca-2 * PA), ATF3: 7.56
Probeset 11719366_s_at
  Fold-Change (MiaPaca-2 * PA vs. MiaPaca-2 * control), CXCL1: 2.03
  Mean (MiaPaca-2 * PA), CXCL1: 12.27
Probeset 11719811_a_at
  Fold-Change (MiaPaca-2 * PA vs. MiaPaca-2 * control), TRIB3: 1.77
  Mean (MiaPaca-2 * PA), TRIB3: 9.38
Probeset 11719898_s_at
  Fold-Change (MiaPaca-2 * PA vs. MiaPaca-2 * control), HBEGF: 2.54
  Mean (MiaPaca-2 * PA), HBEGF: 8.25
Probeset 11719916_at
  Fold-Change (MiaPaca-2 * PA vs. MiaPaca-2 * control), IL1B: 1.90
  Mean (MiaPaca-2 * PA), IL1B: 7.92
Probeset 11720062_s_at
  Fold-Change (MiaPaca-2 * PA vs. MiaPaca-2 * control), IER3: 2.10
  Mean (MiaPaca-2 * PA), IER3: 10.23
Probeset 11722141_at
  Fold-Change (MiaPaca-2 * PA vs. MiaPaca-2 * control), RELB: 1.71
  Mean (MiaPaca-2 * PA), RELB: 7.47
Probeset 11722705_at
  Fold-Change (MiaPaca-2 * PA vs. MiaPaca-2 * control), B3GNT5: 1.83
  Mean (MiaPaca-2 * PA), B3GNT5: 6.95
Probeset 11722850_a_at
  Fold-Change (MiaPaca-2 * PA vs. MiaPaca-2 * control), BIRC3: 1.69
  Mean (MiaPaca-2 * PA), BIRC3: 8.98
Probeset 11722851_at
  Fold-Change (MiaPaca-2 * PA vs. MiaPaca-2 * control), BIRC3: 1.77
  Mean (MiaPaca-2 * PA), BIRC3: 7.17
Probeset 11722867_at
  Fold-Change (MiaPaca-2 * PA vs. MiaPaca-2 * control), CDCP1: 1.68
  Mean (MiaPaca-2 * PA), CDCP1: 8.84
Probeset 11723050_a_at
  Fold-Change (MiaPaca-2 * PA vs. MiaPaca-2 * control), HSPA6: 9.74
  Mean (MiaPaca-2 * PA), HSPA6: 8.06
Probeset 11723753_a_at
  Fold-Change (MiaPaca-2 * PA vs. MiaPaca-2 * control), ZFAND2A: 2.17
  Mean (MiaPaca-2 * PA), ZFAND2A: 9.04
Probeset 11724478_s_at
  Fold-Change (MiaPaca-2 * PA vs. MiaPaca-2 * control), FOSL1: 1.74
  Mean (MiaPaca-2 * PA), FOSL1: 8.17
Probeset 11726329_x_at
  Fold-Change (MiaPaca-2 * PA vs. MiaPaca-2 * control), GBP1: 1.76
  Mean (MiaPaca-2 * PA), GBP1: 5.88
Probeset 11728413_at
  Fold-Change (MiaPaca-2 * PA vs. MiaPaca-2 * control), SERPINB8: 1.95
  Mean (MiaPaca-2 * PA), SERPINB8: 8.88
Probeset 11728476_a_at
  Fold-Change (MiaPaca-2 * PA vs. MiaPaca-2 * control), CXCL3: 2.47
  Mean (MiaPaca-2 * PA), CXCL3: 8.40
Probeset 11728477_at
  Fold-Change (MiaPaca-2 * PA vs. MiaPaca-2 * control), CXCL3: 2.55
  Mean (MiaPaca-2 * PA), CXCL3: 8.95
Probeset 11729119_a_at
  Fold-Change (MiaPaca-2 * PA vs. MiaPaca-2 * control), HSPA1A /// HSPA1B: 1.71
  Mean (MiaPaca-2 * PA), HSPA1A /// HSPA1B: 11.39
